Results: patent EP0284935A1, “5-Substituted quinolone- and naphthyridone carboxylic acid derivatives” (BAYER AG, priority 1987, dated 1988)
In brackets after ≈: the same amount, converted by molar mass.

How the values were obtained:
Test in all cases: Agar dilution test, minimum inhibitory concentration
Assay type in all cases: cell-based
Klebsiella 63 = details: test strain Klebsiella 63; Isosensitest-Agar (Oxoid), inoculum ca. 10^4 germs per inoculation point; read-out: Minimale Hemmkonzentrationen
Providencia 12012 = details: test strain Providencia 12012; Isosensitest-Agar (Oxoid), inoculum ca. 10^4 germs per inoculation point; read-out: Minimale Hemmkonzentrationen
Klebsiella 8085 = details: test strain Klebsiella 8085; Isosensitest-Agar (Oxoid), inoculum ca. 10^4 germs per inoculation point; read-out: Minimale Hemmkonzentrationen
Pseudomonas Ellsworth = details: test strain Pseudomonas Ellsworth; Isosensitest-Agar (Oxoid), inoculum ca. 10^4 germs per inoculation point; read-out: Minimale Hemmkonzentrationen
Morg. morg. 11006 = details: test strain Morg. morg. 11006; Isosensitest-Agar (Oxoid), inoculum ca. 10^4 germs per inoculation point; read-out: Minimale Hemmkonzentrationen
Pseudomonas Walter = details: test strain Pseudomonas Walter; Isosensitest-Agar (Oxoid), inoculum ca. 10^4 germs per inoculation point; read-out: Minimale Hemmkonzentrationen
Serratia 16040 = details: test strain Serratia 16040; Isosensitest-Agar (Oxoid), inoculum ca. 10^4 germs per inoculation point; read-out: Minimale Hemmkonzentrationen
Proteus mir. 8223 = details: test strain Proteus mir. 8223; Isosensitest-Agar (Oxoid), inoculum ca. 10^4 germs per inoculation point; read-out: Minimale Hemmkonzentrationen
Providencia 12052 = details: test strain Providencia 12052; Isosensitest-Agar (Oxoid), inoculum ca. 10^4 germs per inoculation point; read-out: Minimale Hemmkonzentrationen
E.coli 455/7 = details: Escherichia coli; test strain E.coli 455/7; Isosensitest-Agar (Oxoid), inoculum ca. 10^4 germs per inoculation point; read-out: Minimale Hemmkonzentrationen
Staph. FK 422 = details: test strain Staph. FK 422; Isosensitest-Agar (Oxoid), inoculum ca. 10^4 germs per inoculation point; read-out: Minimale Hemmkonzentrationen
Proteus mir. 8175 = details: test strain Proteus mir. 8175; Isosensitest-Agar (Oxoid), inoculum ca. 10^4 germs per inoculation point; read-out: Minimale Hemmkonzentrationen
Staph. 1756 = details: test strain Staph. 1756; Isosensitest-Agar (Oxoid), inoculum ca. 10^4 germs per inoculation point; read-out: Minimale Hemmkonzentrationen
Staph. 133 = details: test strain Staph. 133; Isosensitest-Agar (Oxoid), inoculum ca. 10^4 germs per inoculation point; read-out: Minimale Hemmkonzentrationen
Morg. morg. 932 = details: test strain Morg. morg. 932; Isosensitest-Agar (Oxoid), inoculum ca. 10^4 germs per inoculation point; read-out: Minimale Hemmkonzentrationen
E.coli A261 = details: Escherichia coli; test strain E.coli A261; Isosensitest-Agar (Oxoid), inoculum ca. 10^4 germs per inoculation point; read-out: Minimale Hemmkonzentrationen
Enteroc. 27101 = details: test strain Enteroc. 27101; Isosensitest-Agar (Oxoid), inoculum ca. 10^4 germs per inoculation point; read-out: Minimale Hemmkonzentrationen
Enteroc. 9790 = details: test strain Enteroc. 9790; Isosensitest-Agar (Oxoid), inoculum ca. 10^4 germs per inoculation point; read-out: Minimale Hemmkonzentrationen
E.coli Neumann = details: Escherichia coli; test strain E.coli Neumann; Isosensitest-Agar (Oxoid), inoculum ca. 10^4 germs per inoculation point; read-out: Minimale Hemmkonzentrationen
Proteus vulg. 1017 = details: test strain Proteus vulg. 1017; Isosensitest-Agar (Oxoid), inoculum ca. 10^4 germs per inoculation point; read-out: Minimale Hemmkonzentrationen

Structure (SMILES)	MIC (Klebsiella 63) [µg/mL]	MIC (Providencia 12012) [µg/mL]	MIC (Klebsiella 8085) [µg/mL]	MIC (Pseudomonas Ellsworth) [µg/mL]	MIC (Morg. morg. 11006) [µg/mL]	MIC (Pseudomonas Walter) [µg/mL]	MIC (Serratia 16040) [µg/mL]	MIC (Proteus mir. 8223) [µg/mL]	MIC (Providencia 12052) [µg/mL]	MIC (E.coli 455/7) [µg/mL]	MIC (Staph. FK 422) [µg/mL]	MIC (Proteus mir. 8175) [µg/mL]	MIC (Staph. 1756) [µg/mL]	MIC (Staph. 133) [µg/mL]	MIC (Morg. morg. 932) [µg/mL]	MIC (E.coli A261) [µg/mL]	MIC (Enteroc. 27101) [µg/mL]	MIC (Enteroc. 9790) [µg/mL]	MIC (E.coli Neumann) [µg/mL]	MIC (Proteus vulg. 1017) [µg/mL]
CCN1CCN(c2c(F)c(N)c3c(=O)c(C(=O)O)cn(C4CC4)c3c2F)CC1 [Beispiel 20, 5-Amino-1-cyclopropyl-7-(4-ethyl-1-piperazinyl)-6,8-difluor-1.4-dihydro-4-oxo-3-chinolincarbonsäure]	0.03 (≈ 0.0765 µM)	0.06 (≈ 0.153 µM)	0.06 (≈ 0.153 µM)	0.03 (≈ 0.0765 µM)	0.06 (≈ 0.153 µM)	1 (≈ 2.55 µM)	4 (≈ 10.2 µM)	0.25 (≈ 0.637 µM)	1 (≈ 2.55 µM)	2 (≈ 5.1 µM)	0.06 (≈ 0.153 µM)		0.06 (≈ 0.153 µM)	0.06 (≈ 0.153 µM)	0.03 (≈ 0.0765 µM)	0.25 (≈ 0.637 µM)	0.25 (≈ 0.637 µM)	0.25 (≈ 0.637 µM)		
Nc1c(F)c(N2CCOCC2)c(F)c2c1c(=O)c(C(=O)O)cn2C1CC1 [Beispiel 26, 5-Amino-1-cyclopropyl-6,8-difluor-1,4-dihydro-7-morpholino-4-oxo-3-chinolincarbonsäure]	0.06 (≈ 0.164 µM)	0.06 (≈ 0.164 µM)	0.06 (≈ 0.164 µM)	0.03 (≈ 0.0821 µM)		2 (≈ 5.47 µM)	8 (≈ 21.9 µM)	0.5 (≈ 1.37 µM)	8 (≈ 21.9 µM)	16 (≈ 43.8 µM)	0.03 (≈ 0.0821 µM)		0.03 (≈ 0.0821 µM)	0.03 (≈ 0.0821 µM)	0.03 (≈ 0.0821 µM)	4 (≈ 10.9 µM)	0.25 (≈ 0.684 µM)	0.25 (≈ 0.684 µM)	0.03 (≈ 0.0821 µM)	0.03 (≈ 0.0821 µM)
Nc1c(F)c(N2CCNC(c3ccc(F)cc3)C2)c(F)c2c1c(=O)c(C(=O)O)cn2C1CC1 (stereo not drawn) [Beispiel 24, 5-Amino-1-cyclopropyl-6,8-difluor-7-[3-(4-fluorphenyl)-1-piperazinyl]-1,4-dihydro-4-oxo-3-chinolincarbonsäure]				0.25 (≈ 0.545 µM)	0.25 (≈ 0.545 µM)	2 (≈ 4.36 µM)	8 (≈ 17.5 µM)	2 (≈ 4.36 µM)	4 (≈ 8.73 µM)	4 (≈ 8.73 µM)		0.25 (≈ 0.545 µM)	0.06 (≈ 0.131 µM)	0.06 (≈ 0.131 µM)		1 (≈ 2.18 µM)	0.25 (≈ 0.545 µM)	0.25 (≈ 0.545 µM)		0.06 (≈ 0.131 µM)

These reach a lower MIC (Pseudomonas Walter). Values come first.

MIC (Klebsiella 63) [µg/mL]	MIC (Providencia 12012) [µg/mL]	MIC (Klebsiella 8085) [µg/mL]	MIC (Pseudomonas Ellsworth) [µg/mL]	MIC (Morg. morg. 11006) [µg/mL]	MIC (Pseudomonas Walter) [µg/mL]	MIC (Serratia 16040) [µg/mL]	MIC (Proteus mir. 8223) [µg/mL]	MIC (Providencia 12052) [µg/mL]	MIC (E.coli 455/7) [µg/mL]	MIC (Staph. FK 422) [µg/mL]	MIC (Proteus mir. 8175) [µg/mL]	MIC (Staph. 1756) [µg/mL]	MIC (Staph. 133) [µg/mL]	MIC (Morg. morg. 932) [µg/mL]	MIC (E.coli A261) [µg/mL]	MIC (Enteroc. 27101) [µg/mL]	MIC (Enteroc. 9790) [µg/mL]	MIC (E.coli Neumann) [µg/mL]	MIC (Proteus vulg. 1017) [µg/mL]	Structure (SMILES)
0.03 (≈ 0.0768 µM)	0.06 (≈ 0.154 µM)	0.06 (≈ 0.154 µM)	0.03 (≈ 0.0768 µM)	0.03 (≈ 0.0768 µM)	0.5 (≈ 1.28 µM)	4 (≈ 10.2 µM)	1 (≈ 2.56 µM)	4 (≈ 10.2 µM)	1 (≈ 2.56 µM)											Nc1c(F)c(N2CCN3CCC2C3)c(F)c2c1c(=O)c(C(=O)O)cn2C1CC1 (stereo not drawn) [Beispiel 25, 5-Amino-1-cyclopropyl-7-(1,4-diazabicyclo[3.2.1]oct-4-yl)-6,8-difluor-1,4-dihydro-4-oxo-3-chinolincarbonsäure]
0.03 (≈ 0.0765 µM)	0.03 (≈ 0.0765 µM)	0.06 (≈ 0.153 µM)	0.03 (≈ 0.0765 µM)	0.03 (≈ 0.0765 µM)	0.5 (≈ 1.27 µM)	2 (≈ 5.1 µM)	0.5 (≈ 1.27 µM)	1 (≈ 2.55 µM)	0.5 (≈ 1.27 µM)	0.03 (≈ 0.0765 µM)	0.06 (≈ 0.153 µM)	0.03 (≈ 0.0765 µM)	0.03 (≈ 0.0765 µM)	0.03 (≈ 0.0765 µM)			0.25 (≈ 0.637 µM)			C[C@@H]1CN(c2c(F)c(N)c3c(=O)c(C(=O)O)cn(C4CC4)c3c2F)C[C@H](C)N1 [Beispiel 22, 5-Amino-1-cyclopropyl-6,8-difluor-1,4-dihydro-7-(cis-3,5-dimethyl-1-piperazinyl)-4-oxo-3-chinolincarbonsäure]
					0.25 (≈ 0.661 µM)	2 (≈ 5.29 µM)	0.25 (≈ 0.661 µM)	2 (≈ 5.29 µM)	0.5 (≈ 1.32 µM)	0.03 (≈ 0.0793 µM)	0.06 (≈ 0.159 µM)	0.03 (≈ 0.0793 µM)	0.03 (≈ 0.0793 µM)							CC1CN(c2c(F)c(N)c3c(=O)c(C(=O)O)cn(C4CC4)c3c2F)CCN1 (stereo not drawn) [Beispiel 17, 5-Amino-1-cyclopropyl-6,8-difluor-1,4-dihydro-7-(3-methyl-1-piperazinyl)-4-oxo-3-chinolincarbonsäure]
